Tests used:
[1] = system: New Zealand White rabbits with normotensive IOP; assay: Intraocular pressure (IOP) after topical ocular administration in normotensive New Zealand White rabbits; format: in vivo, New Zealand White rabbit; details: for ocular hypotensive response to the alpha2 agonist after pretreatment with the Na+/H+ exchange inhibitor: pretreatment with Na+/H+ exchange inhibitor (1%) 30 min before the alpha2 agonist, FIGS. 2-4; for ΔIOP at 1 Hr., (X + p) / ΔIOP at 3 Hr., (X + p): Na+/H+ inhibitor X (1%) followed 30 min later by p-amino clonidine (0.1%), mean change from pre-drug level; for ΔIOP at 1 Hr., (X + p): 1 hour post p-amino clonidine; for ΔIOP at 3 Hr., (X + p): 3 hours post p-amino clonidine; for IOP change, amiloride analog administered alone: amiloride analogs alone, Example 2; for ΔIOP at 1 Hr., (X + p) - p / ΔIOP at 3 Hr., (X + p) - p: difference between X (1%) + p-amino clonidine (0.1%) and p-amino clonidine alone
Procedure: Ocular co-administration of an alpha2 agonist and a Na^+ /H^+ exchange inhibitor to effect lowering of IOP was experimentally tested in the New Zealand White rabbit.
The effect of co-administrating of alpha2 agonists and a Na^+ /H^+ exchange inhibitor on lowering IOP was testing in New Zealand White rabbits with normotensive IOP and weighing 3-4 kg. Topical anesthesia was produced by instillation of about 5 μl of […].
Separate solution of various alpha2 agonists and a Na^+ /H^+ exchange inhibitor were prepared by dissolving the specified quantity of agonists or the Na^+ /H^+ exchange inhibitor in distilled water to obtain the concentrations shown below in Table III. The pH of the final solutions ranged from about 4 to about 7.5 as indicated by the characteristics of the individual drugs.
The animals were divided into 2 groups. One group was treated with the Na^+ /H^+ exchange inhibitor followed by an alpha2 agonist and the other group received vehicle followed by the alpha2 agonist. Intraocular pressure (IOP) was measured in both eyes for each animal using a calibrated DIGILAB® pneumatonograph. […] Thirty minutes after application of the Na^+ /H^+ exchange inhibitor or vehicle, IOP was again measured for the eye. Immediately following these measurements, 50 μl of one of the alpha2 agonists solution given in Table III was administered to the test eye in the same manner described above. Thereafter, IOP measurements for each eye of each animal were made at 30 minutes after administration of the alpha2 agonist, then hourly for 6 hours. In separate experiments, the IOP response to the Na^+ /H^+ exchange inhibitor alone was determined.
In another series of experiments, carried out in substantially the same manner as set forth in Example 1, various amiloride analogs with varying potencies at inhibiting Na^+ /H^+ exchange were co-administered with an alpha2 agonist, p-amino clonidine, and IOP determine. […] The data are expressed as mean changes from pre-drug levels.

Na^+ /H^+ exchange = details: inhibition of Na+/H+ exchange in human neutrophils; data taken from Simchowitz and Cragoe, Mol. Pharmacol. 30, 112-120, 1986; cited from earlier work

Compound | ocular hypotensive response to the alpha2 agonist after pretreatment with the Na+/H+ exchange inhibitor [1] | ΔIOP at 1 Hr., (X + p) [1] | ΔIOP at 3 Hr., (X + p) [1] | IOP change, amiloride analog administered alone [1] | ΔIOP at 1 Hr., (X + p) - p [1] | ΔIOP at 3 Hr., (X + p) - p [1] | Ki (Na^+ /H^+ exchange) | IOP response to the Na+/H+ exchange inhibitor alone ([1]; three concentrations (0.1, 0.3, 1%), topical, FIG. 1)
Nc1cc(Cl)c(NC2=NCCN2)c(Cl)c1 [p-amino clonidine, p-aminoclonidine] | augmented |  |  |  |  |  |  | 
Brc1c(NC2=NCCN2)ccc2nccnc12 [5-bromo-6-(2-imidazolidine-2-ylamino)quinoxaline] | augmented |  |  |  |  |  |  | 
Clc1cccc(Cl)c1N=C1NCCN1 [clonidine] | augmented |  |  |  |  |  |  | 
CN(C)c1nc(N)c(C(=O)N=C(N)N)nc1Cl [5-(N,N-dimethyl) amiloride] |  | +1.8 mmHg | +0.7 mmHg | substantially inactive | -1.2 mmHg | -1.9 mmHg | 6.9 µM | 
NC(N)=NC(=O)c1nc(Cl)c(N2CCCCCC2)nc1N [5-(N,N-hexamethylene) amiloride] |  | -8.6 mmHg | -7.5 mmHg | substantially inactive | -11.6 mmHg | -10.1 mmHg | 0.16 µM | 
CCN(c1nc(N)c(C(=O)N=C(N)N)nc1Cl)C(C)C [5-(N-ethyl-N-isopropyl) amiloride] |  | -7.2 mmHg | -5.7 mmHg | substantially inactive | -10.2 mmHg | -7.4 mmHg | 0.36 µM | did not significantly alter IOP
N=C(N)NC(=O)c1nc(Cl)c(N)nc1N [Amiloride] |  | +3.0 mmHg | +2.6 mmHg |  | +0.2 mmHg | +0.6 mmHg | 83.8 µM | 

Reference: patent publication US5215991A, “Combination of selective alpha-adrenergic agonists and Na^+ /H^+ e x” (priority 1990, dated 1993)
